# Experimental data taken from patent US20060251654A1, “Method for treatment of malignant and infectious chronic diseases” (Centro de Inmunologia Molecular, priority 2001, published 2006).
# Test system: syngeneic tumor 3LL-D122
# Experiment: Survival of mice bearing 3LL-D122 tumor after surgery of the primary tumor (Examples 5 and 6)
# Format: in vivo, C57BL/6 mice
# Settings: EGF-p64 vaccine i.m., two weeks later Cyclophosphamide 50 mg/kg i.v., three days later second vaccine dose; versus vaccine plus saline or Cyclophosphamide only
# Description: C57BL/6 mice were injected with the syngeneic tumor 3LL-D122 (200,000 cells/animal) in the right plantar pad. The evolution of the tumor was evaluated by measurement of its diameters every 3 days and surgery of the primary tumor was practiced (amputation) when it reached 8-9 mm of diameter. Mice survival, which is depended of spontaneous lung metastases was measured.
# Two days after the inoculation of the tumor mice were injected by intramuscular route with a vaccine that contains 4 μg of human EGF conjugated to the p64 protein (EGF-p64) in Montanide ISA 51 (100 μl final volume) and two weeks later they were treated with 50 mg/kg of Cyclophosphamide by intravenous route or with saline solution. After three days, the mice were re-immunized by intramuscular route with a second dose of the EGF-p64 vaccine.
# An animal group just was treated by intravenous route with 50 mg/kg of Cyclophosphamide and another one was not treated.
# C57BL/6 mice were injected with the syngenic tumor 3LL-D122 as it is described in Example 5.
# Two days after to the inoculation of the tumor, mice were injected by intramuscular route with a vaccine that contains 4 μg of human EGF conjugated to the P64 protein (EGF-p64) in Montanide ISA 51 (100 μl final volume) and two weeks later they were treated with 1 mg of anti-CD25 monoclonal antibody by intravenous route or with saline solution as control. […]
structure (smiles),measurement,value
O=P1(N(CCCl)CCCl)NCCCO1 (stereo not shown) [Cyclophosphamide],mice survival,increases the mice survival
